Where “and” joins values, the source holds several entries; their conditions need not be identical. Identical values can stand only once. Toxic doses and inconclusive results are not listed.
Test system: P388 leukemia ip, CD2F1 mice, survival T/C
Experiment: NCI In Vivo Anticancer Drug Screen. Data for tumor model P388 Leukemia (intraperitoneal) in CD2F1 (CDF1) mice
Conditions: endpoint: median survival time, higher = longer survival
In short: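 Mice carrying the transplanted tumor received test compound or vehicle. Survival was recorded in each group, and the value is the treated-group measurement divided by that of the vehicle-treated control group.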

[1] = dose: 12.5 mg/kg/injection, schedule: Q01DX009 (ip), vehicle: saline
[2] = dose: 25.0 mg/kg/injection, schedule: Q01DX009 (ip), vehicle: saline
[3] = dose: 50.0 mg/kg/injection, schedule: Q01DX005 (ip), vehicle: Klucel (hydroxypropylcellulose) (HPC)
[4] = dose: 50.0 mg/kg/injection, schedule: Q01DX005 (ip), vehicle: saline with Tween-80
[5] = dose: 100.0 mg/kg/injection, schedule: Q01DX005 (ip), vehicle: Klucel (hydroxypropylcellulose) (HPC)
[6] = dose: 100.0 mg/kg/injection, schedule: Q01DX005 (ip), vehicle: saline with Tween-80
[7] = dose: 200.0 mg/kg/injection, schedule: Q01DX005 (ip), vehicle: Klucel (hydroxypropylcellulose) (HPC)
[8] = dose: 200.0 mg/kg/injection, schedule: Q01DX005 (ip), vehicle: saline with Tween-80
[9] = dose: 60.0 mg/kg/injection, schedule: Q01DX005 (ip), vehicle: saline with Tween-80
[10] = dose: 120.0 mg/kg/injection, schedule: Q01DX005 (ip), vehicle: saline with Tween-80
[11] = dose: 50.0 mg/kg/injection, schedule: Q01DX009 (ip), vehicle: saline
[12] = dose: 100.0 mg/kg/injection, schedule: Q01DX009 (ip), vehicle: saline

For `CCCCn1ccnc1C`, which T/C (dose: 6.25 mg/kg/injection, schedule: Q01DX009 (ip), vehicle: saline) is on record?
Its T/C is 109 % of control.

And the T/C [1]?
Its T/C is 91 % of control.

And the T/C [2]?
Its T/C is 103 % of control.

Which results are given for `COC1(OC)CC=COC1(OC)OC`?
T/C (dose: 60.0 mg/kg/injection, schedule: Q01DX005 (ip), vehicle: saline): 103 % of control; T/C (dose: 120.0 mg/kg/injection, schedule: Q01DX005 (ip), vehicle: saline): 105 % of control; T/C (dose: 240.0 mg/kg/injection, schedule: Q01DX005 (ip), vehicle: saline): 114 % of control

For `O=C(Nc1ccc(OCc2ccccc2)cc1)c1cc2c(cc1Br)OCO2`, which T/C (dose: 25.0 mg/kg/injection, schedule: Q01DX009 (ip), vehicle: other) is on record?
Its T/C is 106 % of control.

And the T/C (dose: 50.0 mg/kg/injection, schedule: Q01DX009 (ip), vehicle: other)?
The T/C was 104 % of control.

What about the T/C (dose: 100.0 mg/kg/injection, schedule: Q01DX009 (ip), vehicle: other) of the same compound?
The T/C was 106 % of control.

What about the T/C (dose: 200.0 mg/kg/injection, schedule: Q01DX009 (ip), vehicle: other) of the same compound?
The T/C was 100 % of control.

What about the T/C (dose: 400.0 mg/kg/injection, schedule: Q01DX009 (ip), vehicle: other) of the same compound?
The T/C was 100 % of control.

With `N#CC1=C(O)NC(O)=C(C#N)C12C(=O)Nc1ccccc12` as the compound, how does the T/C [3] read?
The T/C was 98 % of control.

What about the T/C [4] of the same compound?
The T/C was 104 % of control.

What about the T/C [5] of the same compound?
Its T/C is 101 % of control.

And the T/C [6]?
Its T/C is 104 % of control.

What about the T/C [7] of the same compound?
Its T/C is 99 % of control.

What about the T/C [8] of the same compound?
Its T/C is 104 % of control.

`CCOc1cccs1` was tested. Which T/C [9] did it give?
The T/C was 102 % of control.

And the T/C [10]?
The T/C was 100 % of control.

`Cc1cc(=O)c2cc3c(cc2[nH]1)OCO3` was tested. Which T/C [3] did it give?
The T/C was 106 % of control.

And the T/C [5]?
Its T/C is 100 % of control.

And the T/C [7]?
Its T/C is 100 % of control.

With `ClCCN(CCCl)CCNc1ccnc2cc(Cl)ccc12` as the compound, how does the T/C (dose: 0.1 mg/kg/injection, schedule: Q01DX009 (ip), vehicle: saline) read?
The T/C was 104 % of control.

What about the T/C (dose: 0.2 mg/kg/injection, schedule: Q01DX009 (ip), vehicle: saline) of the same compound?
The T/C was 90 % of control.

What about the T/C (dose: 0.38 mg/kg/injection, schedule: Q01DX009 (ip), vehicle: saline) of the same compound?
The T/C was 114 % of control.

And the T/C (dose: 0.5 mg/kg/injection, schedule: Q01DX009 (ip), vehicle: saline sonified)?
Its T/C is 90 % of control.

And the T/C (dose: 0.58 mg/kg/injection, schedule: Q01DX009 (ip), vehicle: saline)?
The T/C was 114 % of control.

What about the T/C (dose: 0.88 mg/kg/injection, schedule: Q04DX003 (ip), vehicle: saline) of the same compound?
Its T/C is 118 % of control.

And the T/C (dose: 1.0 mg/kg/injection, schedule: Q01DX009 (ip), vehicle: saline sonified)?
The T/C was 118 % of control.

What about the T/C (dose: 2.0 mg/kg/injection, schedule: Q04DX003 (ip), vehicle: saline) of the same compound?
Its T/C is 118 % of control.

What about the T/C (dose: 4.4 mg/kg/injection, schedule: Q01DX009 (ip), vehicle: saline) of the same compound?
Its T/C is 166 % of control.

`c1ccc(-c2cn3c(n2)SCC3)cc1` was tested. Which T/C (dose: 100.0 mg/kg/injection, schedule: Q01DX001 (ip), vehicle: Klucel (hydroxypropylcellulose) (HPC)) did it give?
The T/C was 106 % of control.

And the T/C (dose: 200.0 mg/kg/injection, schedule: Q01DX001 (ip), vehicle: Klucel (hydroxypropylcellulose) (HPC))?
The T/C was 106 % of control.

And the T/C (dose: 400.0 mg/kg/injection, schedule: Q01DX001 (ip), vehicle: Klucel (hydroxypropylcellulose) (HPC))?
The T/C was 111 % of control.

With `C1=C(N2CCCC2)C(=[N+]2CCCC2)C(N2CCCC2)=C1` as the compound, how does the T/C (dose: 3.75 mg/kg/injection, schedule: Q01DX005 (ip), vehicle: saline with Tween-80) read?
Its T/C is 101 % of control.

What about the T/C (dose: 7.5 mg/kg/injection, schedule: Q01DX005 (ip), vehicle: saline with Tween-80) of the same compound?
The T/C was 100 % of control.

And the T/C (dose: 15.0 mg/kg/injection, schedule: Q01DX005 (ip), vehicle: saline with Tween-80)?
Its T/C is 105 % of control.

Which T/C [3] does the source give for `N#Cc1c(C(F)(F)F)cc(-c2cccs2)nc1C(C(=O)Nc1cc(Cl)c(Cl)cc1Cl)c1ccccc1` (stereo unspecified) here?
Its T/C is 87 % of control.

What about the T/C [5] of the same compound?
Its T/C is 92 % of control.

What about the T/C [7] of the same compound?
Its T/C is 91 % of control.

Which results are given for `CN(C)CCC(=O)Nc1nc(-c2ccc(Cl)cc2)cs1`?
T/C [4]: 102 % of control; T/C [6]: 92 % of control; T/C [8]: 96 % of control

For `O=C(O)C(O)C(O)C(=O)O.[Bi].[Na+]` (stereo unspecified), which T/C [1] is on record?
Its T/C is 113 % of control.

What about the T/C [2] of the same compound?
The T/C was 115 % of control.

And the T/C [11]?
Its T/C is 87 % of control and 98 % of control.

What about the T/C [12] of the same compound?
The T/C was 93 % of control.

Which T/C [9] does the source give for `COc1cc2c(cc1C/C=C/c1cc(OC)c(OC)c(OC)c1)OCO2` here?
Its T/C is 93 % of control.

What about the T/C [10] of the same compound?
The T/C was 87 % of control.

What about the T/C (dose: 240.0 mg/kg/injection, schedule: Q01DX005 (ip), vehicle: saline with Tween-80) of the same compound?
The T/C was 86 % of control.

Which results are given for `CSCC(=O)O`?
T/C [11]: 106 % of control; T/C [12]: 106 % of control; T/C (dose: 200.0 mg/kg/injection, schedule: Q01DX009 (ip), vehicle: saline): 97 % of control

With `[C-]#Cc1ccccc1.[C-]#Cc1ccccc1.[Cu+2]` as the compound, how does the T/C (dose: 12.5 mg/kg/injection, schedule: Q04DX003 (ip), vehicle: saline with Tween-80) read?
The T/C was 91 % of control.

And the T/C (dose: 25.0 mg/kg/injection, schedule: Q04DX003 (ip), vehicle: saline with Tween-80)?
The T/C was 86 % of control.

And the T/C (dose: 50.0 mg/kg/injection, schedule: Q04DX003 (ip), vehicle: saline with Tween-80)?
Its T/C is 87 % of control.
